Test results from patent US20160074380A1, “Treatment Of Neurodegenerative Diseases With Combination Of Laquinimod And Fingolimod” (TEVA PHARMACEUTICAL INDUSTRIES LTD., priority 2014, published 2016).
Where “and” joins values, the source holds several entries; their conditions need not be identical. Equal values may be shown once. Marks after values point to notes of the source that are not given here.

Tests used:
reactive astrocytes [1] = test: NO release in conditioned media from reactive astrocytes (ELISA); format: cell-based, mice; conditions: LPS+IFNγ
Method: (§1) Mice mixed glial cells were cultured as described by McCarthy et al., 1980. Primary mice glial cells were prepared from the cortical of newborn Swiss mice (1 day). Briefly, meninges and blood vessels of the mice cortex were removed and placed in ice-cold medium of L15 containing 2% of PS and 1% of BSA. Tissues were dissociated with 0.25% trypsin-EDTA at 37° C. for 10 min. Cells were then submitted to a supplementary incubation of 15 min at 37° C. in presence of deoxyribonuclease I (final concentration of 0.5 mg/mL). Cells were then pelleted (5 min at 1200 rpm) and trypsinization was stopped by adding DMEM supplemented with 10% FCS, 1 mM of Na/pyruvate (PanBiotech, ref: P04-43100, batch: 3470914) and 2% PS. Cells suspension was mechanically dissociated and filtered through 40 μm diameter nylon meshes (BD Falcon, Ref: 352340). The cells were collected by centrifugation at 1200 rpm/min for 10 min, re-suspended in culture medium and then plated in culture flasks (Dutscher, ref: 690175). Cells were seeded at a density of 1.25×10^5 cells/cm2 and cultured in 5% CO2 at 37° C. Medium was changed three times per week.
(§2) Purification of astrocytes cells was done as described by Kim et al., 2006. After 14 days, the flasks were shaken on a rotary shaker at 200 rpm for 3 h. The resulting cell suspension rich in microglia was removed. Cells remaining in the flasks from which microglia had been harvested correspond to astrocytes at a purity of about 90%. Astrocytes were cultured in DMEM supplemented with 10% FCS, 1 mM of Na/pyruvate and 2% at 5% CO2 and 37° C. in flasks of 25 cm2.
(§3) When reaching confluence, primary astroglial cells were first incubated for 2 hours with Fingolimod (1 nM, 10 nM) or Laquinimod (1 nM, 10 nM, 100 nM, 1 μM, 10 μM) alone or in co-incubation or control medium.
(§4) At the end of 2 hours treatment with test compounds, astrocyte culture was activated with serum-free DMEM containing LPS (100 ng/mL; Sigma, Serotype 026:B6, ref: L2654; batch: 123M4052V) and IFNγ (10 ng/mL; Peprotech; ref: 315-05; batch: 061398 L0513) for 6 hours (Kim and Lee, 2013; Shu et al., 2014; Gresa-Arribas et al., 2012) in absence or presence of test compounds.
(§5) To obtain LPS/INFγ free conditioned media (CM), after 6 hours, cells were washed twice with DMEM and medium was replaced with DMEM supplemented with B27 (2%), L-glutamine (2 mM), PS solution (2%). LCM was collected 24 hrs after. For control, cells were incubated with medium not containing LPS/INFγ. […]

reactive astrocytes [2] = test: IL-12p70 concentration in conditioned media from reactive astrocytes (cytometry); format: cell-based, mice; conditions: LPS+IFNγ
Method: as §1, §2, §3, §4, §5

reactive astrocytes [3] = test: TNFα concentration in conditioned media from reactive astrocytes (cytometry); format: cell-based, mice
Method: as §1, §2, §3, §4, §5

reactive astrocytes [4] = test: GM-CSF concentration in conditioned media from reactive astrocytes (cytometry); format: cell-based, mice; conditions: LPS+IFNγ
Method: as §1, §2, §3, §4, §5

cortical neurons = test: Cortical neuron survival after 72 h with conditioned media from reactive astrocytes; format: cell-based, mice; conditions: conditioned media 72 h; for % cell survival: % of control
Method: Mice cortical neurons were cultured as described by Singer et al., 1999. Briefly pregnant female mice of 13 days gestation were killed by cervical dislocation (Mice Swiss; Janvier Lab). The foetuses were removed from the uterus. The cortexes were removed and placed in ice-cold medium of Leibovitz (L15, Panbiotech, ref: P04-27055, batch: 9310614) containing 2% of Penicillin 10.000 U/ml and Streptomycin 10 mg/ml (PS, Panbiotech, ref: P06-07100, batch: 8460514) and 1% of Bovine Serum Albumin (BSA, Panbiotech, Ref: P06-1391100, batch: H140603). Cortexes were dissociated by trypsin-EDTA (Panbiotech, Ref: P10-023100, batch: 3330914) for 20 min at 37° C. The reaction was stopped by the addition of Dulbecco's modified Eagle's Medium (DMEM, Panbiotech, Ref P04-03600, batch: 1300714) containing DNasel grade II (0.1 mg/ml, Panbiotech, ref: P60-37780100, batch: H140508) and 10% of Foetal Calf Serum (FCS, Invitrogen, ref: 10270-098, batch: 4103912K). Cells were then mechanically dissociated by 3 serial passages through a 10 ml pipette. Cells were then centrifuged at 515×g for 10 min at 4° C. The supernatant was discarded and the pellet of cells was re-suspended in a defined culture medium consisting of Neurobasal (Nb, Invitrogen, ref: 21103, batch: 1673148) supplemented with B27 (2%, Invitrogen, ref: 17504, batch: 1672731), L-glutamine (2 mM, Panbiotech, ref: P04-80100, batch: 6620314), 2% of PS solution and 10 ng/ml of Brain-derived neurotrophic factor (BDNF, PanBiotech, Ref: CB-1115002, Batch: 121027). Viable cells were counted in a Neubauer cytometer using the trypan blue exclusion test. The cells were seeded at a density of 30 000 cells/well in 96 well-plates pre-coated with poly-D-lysine (Greiner ref: 655930, batch: E140305F) and were cultured at +37° C. in a humidified air (95%)/CO2 (5%) atmosphere.
as §1, §2, §3
At the end of 2 hours treatment with test compounds, astrocyte culture was activated with serum-free DMEM containing LPS (100 ng/mL; Sigma, Serotype 026:B6, ref: L2654; batch: 123M4052V) and IFNγ (10 ng/mL; Peprotech; ref: 315-05; batch: 061398 L0513) for 6 hours (Kim and Lee, 2013; Shu et al., 2014; Gresa-Arribas et al., 2012) in absence or presence of test compounds. […]

[5] = test system: astrocytic and microglial activation and acute axonal damage; conditions: cited from earlier work; for demyelination, astrocytic and microglial activation: Kim, 2011
[6] = Mus musculus, Astrocyte, 1 nM, read-out: % inhibition of IL-12p70 release
[7] = Mus musculus, Astrocyte, 10 nM, read-out: % inhibition of IL-12p70 release
[8] = Mus musculus, Astrocyte, 1 nM, LPS+IFNγ, read-out: % inhibition of TNFα release
[9] = Mus musculus, Astrocyte, 10 nM, LPS+IFNγ, read-out: % inhibition of TNFα release
[10] = Mus musculus, Astrocyte, 1 nM, read-out: % inhibition of GM-CSF release
[11] = Mus musculus, Astrocyte, 10 nM, read-out: % inhibition of GM-CSF release

## CCCCCCCCc1ccc(CCC(N)(CO)CO)cc1 [Fingolimod]
Reactive astrocytes [1]; 1 nM
  NO content: 24.39 pg/mL and 24.396 pg/mL
Reactive astrocytes [1]; 10 nM
  NO content: 17.37 pg/mL and 17.371 pg/mL
Reactive astrocytes [1]; Mus musculus, Astrocyte, 1 nM
  inhibition at 0.001 µM: 43.7%
Reactive astrocytes [1]; Mus musculus, Astrocyte, 10 nM
  inhibition at 0.01 µM: 59.9%
Reactive astrocytes [2]; 1 nM
  IL-12p70 content: 6.15 pg/mL
Reactive astrocytes [2]; 10 nM
  IL-12p70 content: 4.25 pg/mL
Reactive astrocytes [2]; [6]
  inhibition at 0.001 µM: 38.1%
Reactive astrocytes [2]; [7]
  inhibition at 0.01 µM: 57.2%
Reactive astrocytes [3]; 1 nM and 10 nM
  effect on TNFα release: didn't show any significant effect
Reactive astrocytes [3]; 1 nM, LPS+IFNγ
  TNFa content: 3170.03 pg/mL
Reactive astrocytes [3]; 10 nM, LPS+IFNγ
  TNFa content: 3053.66 pg/mL
Reactive astrocytes [3]; [8]
  inhibition at 0.001 µM: 3.4%
Reactive astrocytes [3]; [9]
  inhibition at 0.01 µM: 6.9%
Reactive astrocytes [4]; 1 nM
  GM-CSF content: 204.09 pg/mL
Reactive astrocytes [4]; 10 nM
  GM-CSF content: 147.56 pg/mL
  GM-CSF release: 148 pg/mL
Reactive astrocytes [4]; [10]
  inhibition at 0.001 µM: 16%
Reactive astrocytes [4]; [11]
  inhibition at 0.01 µM: 39.2%
Cortical neurons; 1 nM
  % cell survival: 80%
  % cell death: 20%
  % inhibition of cortical neuron cell death: 41.2%
Cortical neurons; 10 nM
  % cell survival: 85%
  % cell death: 15%
  % inhibition of cortical neuron cell death: 55.9* %
[5]
  demyelination, astrocytic and microglial activation: partial response

## CCN(C(=O)c1c(O)c2c(Cl)cccc2n(C)c1=O)c1ccccc1 [Laquinimod]
Reactive astrocytes [1]; 1 nM
  NO content: 26.44 pg/mL and 26.447 pg/mL
Reactive astrocytes [1]; 10 nM
  NO content: 21.1 pg/mL and 21.093 pg/mL
Reactive astrocytes [1]; 100 nM
  NO content: 17.98 pg/mL and 17.983 pg/mL
Reactive astrocytes [1]; 1 μM
  NO content: 16.11 pg/mL and 16.111 pg/mL
Reactive astrocytes [1]; Mus musculus, Astrocyte, 1 nM
  inhibition at 0.001 µM: 39%
Reactive astrocytes [1]; Mus musculus, Astrocyte, 10 nM
  inhibition at 0.01 µM: 51.3%
Reactive astrocytes [1]; Mus musculus, Astrocyte, 100 nM
  inhibition at 0.1 µM: 58.5%
Reactive astrocytes [1]; Mus musculus, Astrocyte, 1 μM
  inhibition at 1 µM: 62.8%
Reactive astrocytes [2]; 1 nM
  IL-12p70 content: 6.53 pg/mL
Reactive astrocytes [2]; 10 nM
  IL-12p70 content: 6.29 pg/mL
Reactive astrocytes [2]; 100 nM
  IL-12p70 content: 3.84 pg/mL
Reactive astrocytes [2]; 1 μM
  IL-12p70 content: 2.55 pg/mL
Reactive astrocytes [2]; [6]
  inhibition at 0.001 µM: 34.3%
Reactive astrocytes [2]; [7]
  inhibition at 0.01 µM: 36.7%
Reactive astrocytes [2]; Mus musculus, Astrocyte, 100 nM, read-out: % inhibition of IL-12p70 release
  inhibition at 0.1 µM: 61.4%
Reactive astrocytes [2]; Mus musculus, Astrocyte, 1 μM, read-out: % inhibition of IL-12p70 release
  inhibition at 1 µM: 74.3%
Reactive astrocytes [3]; 1 nM, LPS+IFNγ
  TNFa content: 3257.64 pg/mL
Reactive astrocytes [3]; 10 nM, LPS+IFNγ
  TNFa content: 2440.81 pg/mL
Reactive astrocytes [3]; 100 nM, LPS+IFNγ
  TNFa content: 2464 pg/mL
Reactive astrocytes [3]; 1 μM, LPS+IFNγ
  TNFa content: 2769 pg/mL and 2769.46 pg/mL
Reactive astrocytes [3]; [8]
  inhibition at 0.001 µM: 0.7%
Reactive astrocytes [3]; [9]
  inhibition at 0.01 µM: 25.6%
Reactive astrocytes [3]; Mus musculus, Astrocyte, 100 nM, LPS+IFNγ, read-out: % inhibition of TNFα release
  inhibition at 0.1 µM: 24.9%
Reactive astrocytes [3]; Mus musculus, Astrocyte, 1 μM, LPS+IFNγ, read-out: % inhibition of TNFα release
  inhibition at 1 µM: 15.6%
Reactive astrocytes [4]; 1 nM
  GM-CSF content: 207.71 pg/mL
Reactive astrocytes [4]; 10 nM
  GM-CSF content: 209.51 pg/mL
Reactive astrocytes [4]; 100 nM
  GM-CSF content: 179.39 pg/mL
Reactive astrocytes [4]; 1 μM
  GM-CSF content: 154 pg/mL and 154.26 pg/mL
Reactive astrocytes [4]; [10]
  inhibition at 0.001 µM: 14.5%
Reactive astrocytes [4]; [11]
  inhibition at 0.01 µM: 13.7%
Reactive astrocytes [4]; Mus musculus, Astrocyte, 100 nM, read-out: % inhibition of GM-CSF release
  inhibition at 0.1 µM: 26.1%
Reactive astrocytes [4]; Mus musculus, Astrocyte, 1 μM, read-out: % inhibition of GM-CSF release
  inhibition at 1 µM: 36.5%
Cortical neurons; 1 nM
  % cell survival: 73%
  % cell death: 27%
  % inhibition of cortical neuron cell death: 20.6* %
Cortical neurons; 10 nM
  % cell survival: 80%
  % cell death: 20%
  % inhibition of cortical neuron cell death: 41.2%
Cortical neurons; 100 nM
  % cell survival: 83%
  % cell death: 17%
  % inhibition of cortical neuron cell death: 50.0%
Cortical neurons; 1 μM
  % cell survival: 92%
  % cell death: 8%
  % inhibition of cortical neuron cell death: 76.5%
[5]; Brück, 2012
  acute axonal damage: reduces it completely
[5]
  demyelination, astrocytic and microglial activation: partial response
